# Laboratory results: patent publication US5698672A, “Synthetic calcitonin mimetics” (ZymoGenetics, Inc., priority 1995, dated 1997)
# [ ]: non-standard residue; d: D form. Aib = CC(C)(N)C(=O)O
# How the values were obtained:
# [1] = target: T1, human calcitonin receptor (Homo sapiens, UniProt P30988); experiment: CRE-luciferase induction in Hollex-1 cells (BHK, human calcitonin receptor); assay type: cell-based
# T1 construct: expressed in transfected cells; host or cells: BHK 570 derivative KZ10-20-48 (clone Hollex-1)
# T1 sequence (P30988 25-474): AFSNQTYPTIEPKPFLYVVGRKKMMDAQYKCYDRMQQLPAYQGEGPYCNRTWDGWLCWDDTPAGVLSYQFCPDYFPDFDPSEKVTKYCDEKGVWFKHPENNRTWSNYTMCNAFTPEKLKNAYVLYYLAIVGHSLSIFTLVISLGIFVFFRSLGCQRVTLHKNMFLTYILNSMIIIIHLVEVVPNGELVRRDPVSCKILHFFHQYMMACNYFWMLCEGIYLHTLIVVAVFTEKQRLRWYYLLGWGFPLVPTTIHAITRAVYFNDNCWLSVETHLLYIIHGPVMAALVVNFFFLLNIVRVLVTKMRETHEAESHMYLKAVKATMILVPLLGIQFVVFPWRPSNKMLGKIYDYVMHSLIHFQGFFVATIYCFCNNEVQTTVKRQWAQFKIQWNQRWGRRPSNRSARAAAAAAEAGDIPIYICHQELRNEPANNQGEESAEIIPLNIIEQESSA
# [2] = test system: KZ10-20-48 (BHK 570 cells with CRE-luciferase reporter); experiment: CRE-luciferase induction in BHK/KZ10-20-48 cells; assay type: cell-based, hamster; settings: clone KZ10-20-48; 25 mM forskolin, 4 hours; range 15-25 fold
# human glucagon receptor = human glucagon receptor (Homo sapiens, UniProt P47871); settings: KZ10-20-48/pLJ6-4-25
# Chain of human glucagon receptor (P47871 26-477): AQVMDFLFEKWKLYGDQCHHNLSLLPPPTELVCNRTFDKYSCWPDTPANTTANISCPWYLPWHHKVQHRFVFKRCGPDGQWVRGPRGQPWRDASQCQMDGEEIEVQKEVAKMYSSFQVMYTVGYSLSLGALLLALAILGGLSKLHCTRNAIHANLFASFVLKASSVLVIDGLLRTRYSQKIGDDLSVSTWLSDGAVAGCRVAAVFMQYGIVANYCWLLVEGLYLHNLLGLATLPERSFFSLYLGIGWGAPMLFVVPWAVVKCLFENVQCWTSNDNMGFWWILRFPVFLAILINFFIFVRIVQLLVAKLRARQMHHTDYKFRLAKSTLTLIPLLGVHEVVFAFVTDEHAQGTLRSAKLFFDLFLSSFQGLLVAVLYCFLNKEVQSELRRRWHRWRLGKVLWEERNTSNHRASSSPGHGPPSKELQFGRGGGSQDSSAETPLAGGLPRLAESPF
# Source text: Test substances that appeared to specifically elevate luciferase expression in calcitonin receptor-positive cells, but not calcitonin receptor-negative cells, were subjected to an additional specificity check, i.e., their inability to activate other members of the G-protein coupled-receptor family.
# [3] = test system: KZ10-20-48/Zem 228 (calcitonin receptor-negative BHK cells); experiment: CRE-luciferase induction in receptor-negative KZ10-20-48/Zem 228 cells; settings: Mesocricetus auratus, read-out: EC50, CRE-luciferase induction
# [4] = target: hamster calcitonin receptor (Mesocricetus auratus, UniProt A0A3Q0D7K7); experiment: CRE-luciferase induction in Boris/KZ10-3 cells (hamster calcitonin receptor)
# Chain of hamster calcitonin receptor (A0A3Q0D7K7 entry or part of it): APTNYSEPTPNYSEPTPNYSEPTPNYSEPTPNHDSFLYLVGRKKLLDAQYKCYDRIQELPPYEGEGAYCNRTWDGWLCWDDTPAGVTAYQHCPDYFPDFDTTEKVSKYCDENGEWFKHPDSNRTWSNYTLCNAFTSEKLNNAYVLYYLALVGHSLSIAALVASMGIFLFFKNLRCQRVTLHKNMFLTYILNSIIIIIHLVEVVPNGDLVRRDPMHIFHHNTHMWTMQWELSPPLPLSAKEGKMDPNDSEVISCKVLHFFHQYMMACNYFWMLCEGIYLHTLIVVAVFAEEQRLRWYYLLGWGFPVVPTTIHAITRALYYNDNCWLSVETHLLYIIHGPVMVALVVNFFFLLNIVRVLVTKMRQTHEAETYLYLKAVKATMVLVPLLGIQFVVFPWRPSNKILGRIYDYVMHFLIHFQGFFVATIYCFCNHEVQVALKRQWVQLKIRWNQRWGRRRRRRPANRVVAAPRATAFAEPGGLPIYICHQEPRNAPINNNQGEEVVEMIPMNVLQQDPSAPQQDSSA
# calcitonin receptor = experiment: CRE-luciferase assay for calcitonin mimetics (calcitonin receptor-positive cell line, Hollex-1 or Boris/KZ10); assay type: cell-based; settings: calcitonin receptor-positive cells; cell line not given; read-out: CRE-Luciferase Induction EC50
# Source text: All synthetic calcitonin mimetics are subjected to an assay system that permits rapid identification of substances having selective calcitonin receptor activity on cells expressing the calcitonin receptor. Only those modifications which retain calcitonin-like activity, as assayed by the CRE-luciferase assay for example, are within the scope of this invention. The calcitonin receptor is a member of the G-protein receptor family and transduces signal via activation of adenylate cyclase, leading to elevation of cellular cAMP levels (Lin et al., Science 254:1022-24, 1991). This assay system exploits the receptor's ability to elevate cAMP levels as a way to detect other molecules, not calcitonin, that are able to stimulate the calcitonin receptor and initiate signal transduction.
# [5] = test system: PTH induced bone resorption in mouse calvariae; experiment: Calvarial assay: PTH induced bone resorption, calcium release; assay type: cell-based; settings: 1 nM PTH 1-34, 72 hours, neonatal mouse calvariae; read-out: Inhibition of Ca++ Release EC50
# Experimental: Calvaria from 4-day old neonatal CD-1 mice (pregnant mice received from Charles River Laboratories, Wilmington, Mass.) were trimmed with fine-tipped scissors to leave the parietal regions, including the sagittal suture. These trimmed bones were placed singly per well into 6-well cell culture cluster plates (Costar, Pleasanton, Calif.) with 1 ml/well of growth medium (DMEM (BioWhittaker, Walkersville, Md.) with 4.5 g/L glucose, 0.29 mg/ml L-glutamine, 1 mM sodium pyruvate, 15% heat-inactivated horse serum, and antibiotics (penicillin-G […], streptomycin […], and neomycin […])), and rocked gently (RedRocker™, model PR50-115V) (Hoefer, San Francisco, Calif.) at 37° C. in a 5% CO2 humidified incubator for 24 hours preincubation.
# Following incubation, medium was removed and replaced with 1.5 ml/well of growth medium containing 1 nM parathyroid hormone (PTH) 1-34 (Sigma) to stimulate bone resorption. For evaluation of the ability of synthetic calcitonin mimetics to inhibit PTH induced bone resorption, mimetic compounds in DMSO were added to the growth medium at concentrations ranging from […] (final assay concentration of DMSO less than or equal to 1%). In each experiment human calcitonin (0.02-20 nM, 0.2-2 nM preferred) was added to PTH treated bones as a positive control. […]
# [6] = test system: osteoclasts in mouse calvariae; experiment: Calvaria histology: osteoclast number and size; assay type: cell-based; settings: PTH induced bone resorption in mouse calvariae
# Source text: To confirm the findings in the calvarial bone resorption assay employing calcium release from culture mouse calvariae, selected bones were fixed in 10% neutral buffered formalin and demineralized in 5% formic acid with 5% formalin. The bones were dehydrated through an ascending series of ethanol concentrations, infiltrated in glycol methacrylate, and embedded using a JB-4 embedding kit (PolySciences, Warrington, Pa.) (Liu and Kalu, J. Bone Miner. Res., 5:973-82, 1990). Cross sections of calvariae cut at […] were obtained and stained for tartrate-resistant acid phosphatase (TRAP) activity and counterstained with methyl green and thionin for cell morphology (Liu and Kalu, J. Bone. Miner. Res. 1990, supra). osteoclasts were identified by TRAP stain, multinucleation, large cell size, and irregular cell shape. The number of osteoclasts were counted from endocranial and ectocranial bone surfaces and expressed as number/mm perimeter. The size of all the osteoclasts counted was also measured using a Bone Morphometry program (Lui and Kalu, supra.; Bain et al., J. Bone Miner. Res. 8:435-42, 1993). […] This PTH-induced increase was suppressed by treatment with human calcitonin.
# Calcitonin mimetic compounds were evaluated in a similar fashion for their ability to suppress PTH-induced increases in osteoclast number and size. Cell toxicity (or death) was also evaluated morphologically. […]
compound,measurement,setting,value
C=C[C@@]1(C)CC(=O)[C@]2(O)[C@@]3(C)[C@@H](O)CCC(C)(C)[C@@H]3[C@H](O)[C@H](OC(C)=O)[C@@]2(C)O1 [forskolin],EC50,[1],1.2 µM
same,induction of CRE-luciferase,[2],20 fold
same,induction of luciferase,human glucagon receptor,35 fold
same,EC50,[3],0.6 µM
same,induction of luciferase,[4],25 fold
Ac-W[Aib]Q[Aib]IT[Aib]L[Aib]PQ[Aib]PF-OH [Synthetic 2807],EC50,calcitonin receptor,2.28 µM
same,EC50,[5],36 µM
same,Histology,[6],Inhibitory
